Reference: patent US11986452B2, “Methods of reducing the risk of heart failure” (Amarin Pharmaceuticals Ireland Limited, priority 2021, dated 2024)

How the values were obtained:
[1] = system: statin-treated patients with established CVD or at high risk for CVD, and hypertriglyceridemia; experiment: REDUCE-IT time-to-first-event analysis of adjudicated cardiovascular endpoints (primary, key secondary, secondary, tertiary); format: in vivo, human
Description: The following study, also referred to as the REDUCE-IT clinical trial, was a large cardiovascular (CV) outcome trial designed to assess CV risk reduction benefit of AMR101 treatment (commercially known as VASCEPA®) versus placebo on the 5-point primary composite endpoint: CV death, non-fatal stroke, non-fatal myocardial infarction (MI), coronary revascularizations, or unstable angina requiring hospitalization.
A multi-center, prospective, randomized, double-blind, placebo-controlled, parallel-group study was performed to evaluate the effect of AMR101 (4 g per day) on cardiovascular health and mortality in hypertriglyceridemic patients with cardiovascular disease or at high risk for cardiovascular disease. The intended expanded indication of the study was treatment with AMR101 as an add-on to statin therapy to reduce the risk of cardiovascular events in patients with clinical cardiovascular disease or with multiple risk factors for cardiovascular disease.
The primary objective of this study was, in patients at LDL-C goal while on statin therapy, with established cardiovascular disease (CVD) or at high risk for CVD, and hypertriglyceridemia (e.g., fasting triglycerides (TG) 200 mg/dL and <500 mg/dL), to evaluate the effect of AMR101 4 g daily on time from randomization to first occurrence of any component of the composite of the following major CV events: CV death; nonfatal MI; (including silent MI; electrocardiograms (ECGs) were performed annually for the detection of silent MIs); nonfatal stroke; coronary revascularization; and unstable angina determined to be caused by myocardial ischemia by invasive/non-invasive testing and requiring emergent hospitalization.
The key secondary objective of this study was to evaluate the effect of AMR101 4 g daily on the time from randomization to the first occurrence of the composite of following major CV events: CV death, nonfatal MI (including silent MI), and nonfatal stroke.
Other secondary objectives for this study were to evaluate the effect of therapy on time from randomization to the first occurrence of the following individual or composite endpoints: composite of CV death or nonfatal MI (including silent MI); fatal or nonfatal MI (including silent MI); non-elective coronary revascularization represented as the composite of emergent or urgent classifications; CV death; unstable angina determined to be caused by myocardial ischemia by invasive/non-invasive testing and requiring emergent hospitalization; fatal or nonfatal stroke; composite of total mortality, nonfatal MI (including silent MI), or nonfatal stroke; and total mortality.
Primary Efficacy Endpoint: The primary efficacy endpoint was time from randomization to the first occurrence of the composite of the following clinical events: CV death; nonfatal MI (including silent MI; ECGs were performed annually for the detection of silent MIs); nonfatal stroke; coronary revascularization; and unstable angina determined to be caused by myocardial ischemia by invasive/non-invasive testing and requiring emergent hospitalization. The first occurrence of any of these major adverse vascular events during the follow-up period of the study were included in the incidence.
Secondary Efficacy Endpoints: The key secondary efficacy endpoint was the time from randomization to the first occurrence of the composite of CV death, nonfatal MI (including silent MI), or nonfatal stroke. […]

[2] = REDUCE-IT safety: treatment-emergent adverse events, safety population
Description: All adverse events, including observed or volunteered problems, complaints, or symptoms, were recorded on the appropriate CRF. Each adverse event was evaluated for duration, intensity, and causal relationship with the study medication or other factors.
Adverse Events of Special Interest: Bleeding-related adverse events, glucose control (fasting blood glucose and HbA1c), and indicators of hepatic disorders (e.g., ALT or AST increases >3×ULN, total bilirubin increases of ≥2×ULN) were summarized separately and compared between treatment groups.
Analysis of Safety: All analyses of safety were conducted on the safety population, which was defined as all randomized patients. The safety assessment was based on the frequency of adverse events, physical exams, vital signs and safety laboratory tests. AEs with new onset during the study between the initiation of study drug and 30 days after the last dose of study drug for each patient was considered treatment-emergent (TEAEs). This included any AE with onset prior to initiation of study drug and increased severity after the treatment initiation.
This included overall incidence rates (regardless of severity and relationship to study drug), and incidence rates for moderate or severe adverse events. A summary of SAEs and adverse events leading to early discontinuation (for ≥30 days) were presented through data listings. Patients who restarted study drug were included in the summary of AEs leading to discontinuation. Safety laboratory tests and vital signs were summarized by post-treatment change from baseline for each of the parameters using descriptive statistics by treatment group. Those patients with significant laboratory abnormalities were identified in data listings. Additional safety parameters were summarized in data listings.

[3] = 4 g per day, hierarchical testing
[4] = 4 g/day, time to first occurrence, ITT, median follow up 4.9 years
[5] = safety population N = 4089, listed as AMR101
[6] = serious bleeding TEAE, safety population N = 4089

Compound: CC/C=C\C/C=C\C/C=C\C/C=C\C/C=C\CCCC(=O)OCC [icosapent ethyl, eicosapentaenoic acid ethyl ester]
- Cardiovascular death: RRR [1, 3]: 20%
- Composite of cardiovascular death or nonfatal myocardial infarction: RRR [1, 3]: 25%
- Composite of total mortality, nonfatal myocardial infarction, or nonfatal stroke: reduction [1, 3]: 23%
- Fatal or nonfatal myocardial infarction: RRR [1, 3]: 31%
- Fatal or nonfatal stroke: RRR [1, 3]: 28%
- Total mortality: reduction [1, 3]: 13%
- Sudden death: reduction ([1]; 4 g/day vs placebo): 31%
- Cardiovascular death: HR vs placebo ([1]; 4 g/day, ITT): 0.80
- Cardiovascular death: patients with event ([1]; 4 g/day, ITT): 4.3%
- Total mortality: HR vs placebo ([1]; 4 g/day, ITT): 0.87
- Total mortality: patients with event ([1]; 4 g/day, ITT): 6.7%
- Key secondary composite endpoint (CV death, nonfatal MI, or nonfatal stroke): patients with event [1, 4]: 11.2%
- Primary composite endpoint (CV death, nonfatal MI, nonfatal stroke, coronary revascularization, or unstable angina): patients with event [1, 4]: 17.2%
- Cardiac Arrest: HR vs placebo ([1]; tertiary endpoint): 0.52
- Coronary Revascularization: HR vs placebo ([1]; tertiary endpoint): 0.66
- Elective Revascularization: HR vs placebo ([1]; tertiary endpoint): 0.68
- Emergent Revascularization: HR vs placebo ([1]; tertiary endpoint): 0.62
- Ischemic Stroke: HR vs placebo ([1]; tertiary endpoint): 0.64
- New Heart Failure Requiring Hospitalization: HR vs placebo ([1]; tertiary endpoint): 0.97
- New Heart Failure: HR vs placebo ([1]; tertiary endpoint): 0.95
- Primary Endpoint in Patients with Diabetes at Baseline: HR vs placebo ([1]; tertiary endpoint): 0.77
- Salvage Revascularization: HR vs placebo ([1]; tertiary endpoint): 0.00
- Sudden Cardiac Death: HR vs placebo ([1]; tertiary endpoint): 0.69
- Urgent Revascularization: HR vs placebo ([1]; tertiary endpoint): 0.66
- Primary Endpoint in Patients with Diabetes at Baseline: patients with event ([1]; tertiary endpoint, 4 g/day): (18.1%)
- Sudden Cardiac Death: patients with event ([1]; tertiary endpoint, 4 g/day): (1.5%)
- Adverse event rate: anemia ([2]; 4 g/day): 4.7%
- Adverse event rate: atrial fibrillation ([2]; 4 g/day): 5.3%
- Adverse event rate: diarrhea ([2]; 4 g/day): 9%
- Adverse event rate: gastrointestinal adverse events ([2]; 4 g/day): 33.0%
- Adverse event rate: peripheral edema ([2]; 4 g/day): 6.5%
- Atrial fibrillation or flutter requiring hospitalization (prespecified adjudicated tertiary endpoint) ([2]; 4 g/day): 3.1%
- Tolerability; rates of serious adverse events versus placebo ([2]; in vivo): well tolerated
- Serious TEAE ([2]; safety population N = 4089): (30.6%)
- Serious TEAE (≥2%): Pneumonia ([2]; safety population N = 4089): 2.6%
- Serious TEAE Leading to Death ([2]; safety population N = 4089): (2.3%)
- Serious TEAE Leading to Withdrawal of Study Drug ([2]; safety population N = 4089): (2.2%)
- Serious bleeding TEAE: Bleeding related disorders ([2]; safety population N = 4089): (2.7%)
- Serious bleeding TEAE: Central nervous system bleeding ([2]; safety population N = 4089): (0.3%)
- Serious bleeding TEAE: Gastrointestinal bleeding ([2]; safety population N = 4089): (1.5%)
- Serious bleeding TEAE: Other bleeding ([2]; safety population N = 4089): (1.0%)
- Subjects with at Least One TEAE ([2]; safety population N = 4089): (81.8%)
- TEAE Leading to Withdrawal of Study Drug ([2]; safety population N = 4089): (7.9%)
- Serious bleeding TEAE: Bleeding related disorders [2, 5]: 2.7%
- Serious bleeding TEAE: Central nervous system bleeding [2, 5]: 0.3%
- Serious bleeding TEAE: Gastrointestinal bleeding [2, 5]: 1.5%
- Patients with Bleeding-Related Disorders, % [2, 6]: (2.7%)
- Patients with Bleeding-Related Disorders, number [2, 6]: 111
